# Source: patent US8946215B2, “Hydroxy-substituted imidazo[1,2-a]pyridinecarboxamides and their use” (Bayer Pharma Aktiengesellschaft, priority 2012, dated 2015)
# Counter-ions that a name gives are not always drawn.
# Biological target: T1, recombinant guanylate cyclase reporter cell line (Rattus norvegicus, UniProt P19686+P20595)
# T1 construct: expressed in transfected cells
# T1 sequence (P20595 1-619): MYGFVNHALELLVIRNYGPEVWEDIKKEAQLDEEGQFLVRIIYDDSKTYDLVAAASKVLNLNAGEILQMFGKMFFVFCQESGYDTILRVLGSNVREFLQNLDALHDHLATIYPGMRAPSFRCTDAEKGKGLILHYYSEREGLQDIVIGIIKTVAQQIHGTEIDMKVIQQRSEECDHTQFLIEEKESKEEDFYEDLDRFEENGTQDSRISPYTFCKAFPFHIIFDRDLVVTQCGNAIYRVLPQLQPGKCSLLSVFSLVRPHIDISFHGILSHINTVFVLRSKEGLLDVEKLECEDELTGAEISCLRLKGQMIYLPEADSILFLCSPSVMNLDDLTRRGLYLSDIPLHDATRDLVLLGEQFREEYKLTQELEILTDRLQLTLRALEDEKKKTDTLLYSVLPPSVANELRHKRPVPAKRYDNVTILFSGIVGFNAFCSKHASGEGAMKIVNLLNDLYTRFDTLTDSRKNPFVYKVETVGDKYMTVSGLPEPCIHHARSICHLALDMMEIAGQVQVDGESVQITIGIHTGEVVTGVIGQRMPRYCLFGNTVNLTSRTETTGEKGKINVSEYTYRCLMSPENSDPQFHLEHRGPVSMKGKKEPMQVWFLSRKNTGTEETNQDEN
# T1 sequence (P19686 1-690): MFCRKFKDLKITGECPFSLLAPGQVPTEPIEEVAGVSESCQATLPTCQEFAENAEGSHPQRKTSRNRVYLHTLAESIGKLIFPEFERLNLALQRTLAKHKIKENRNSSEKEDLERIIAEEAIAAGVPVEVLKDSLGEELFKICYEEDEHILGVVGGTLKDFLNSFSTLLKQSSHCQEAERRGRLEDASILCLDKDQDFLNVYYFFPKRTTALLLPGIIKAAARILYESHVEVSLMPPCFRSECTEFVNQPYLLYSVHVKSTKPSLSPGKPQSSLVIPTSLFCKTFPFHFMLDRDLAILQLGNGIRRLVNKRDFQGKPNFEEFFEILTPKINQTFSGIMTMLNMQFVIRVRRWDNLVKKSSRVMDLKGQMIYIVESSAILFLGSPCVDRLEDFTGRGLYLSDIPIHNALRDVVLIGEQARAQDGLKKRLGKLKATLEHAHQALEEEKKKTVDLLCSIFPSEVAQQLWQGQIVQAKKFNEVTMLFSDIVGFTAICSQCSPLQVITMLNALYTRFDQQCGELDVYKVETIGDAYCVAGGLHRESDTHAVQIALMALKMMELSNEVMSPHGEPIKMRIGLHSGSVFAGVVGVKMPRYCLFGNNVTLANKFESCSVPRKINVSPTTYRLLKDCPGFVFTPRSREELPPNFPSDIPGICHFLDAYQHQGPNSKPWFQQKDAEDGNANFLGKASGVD
# Experiment: Action on recombinant guanylate cyclase reporter cell line
# Format: cell-based
# Settings: in some cases mean values obtained from individual determinations
# Outline: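 Cell-based reporter assay with recombinant guanylate cyclase expressed in a reporter cell line, per a published method. Activity reported as minimal effective concentration (MEC), in some cases as the mean of individual determinations.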
row,Compound,MEC (minimal effective concentration) [µM]
1,Cc1nc2c(OCc3c(F)cccc3F)cccn2c1C(=O)NC(C)(C)CO [Example 34],0.3
2,Cc1nc2c(OCc3c(F)cccc3F)cccn2c1C(=O)N[C@@H](CO)C(C)(C)C [Example 35],0.3
3,Cc1nc2c(OCc3c(F)cccc3F)cccn2c1C(=O)N[C@@H]1CCC[C@H]1O [Example 36],0.1
4,Cc1nc2c(OCc3c(F)cccc3F)cccn2c1C(=O)N[C@@H]1CCC[C@@H]1O [Example 37],0.3
5,Cc1nc2c(OCc3c(F)cccc3F)cccn2c1C(=O)N[C@@H](CO)Cc1ccccc1 [Example 38],0.3
6,"Cc1nc2c(OCc3c(F)cccc3F)cccn2c1C(=O)N[C@@H](CO)CC(C)C [Example 39, 8-[(2,6-Difluorobenzyl)oxy]-N-[(2R)-1-hydroxy-4-methylpentan-2-yl]-2-methylimidazo[1,2-a]-pyridine-3-carboxamide]",0.03
7,"Cc1nc2c(OCc3c(F)cccc3F)cccn2c1C(=O)N[C@H]1c2ccccc2C[C@H]1O [Example 40, 8-[(2,6-difluorobenzyl)oxy]-N-[(1S,2R)-2-hydroxy-2,3-dihydro-1H-inden-1-yl]-2-methylimidazo[1,2-a]pyridine-3-carboxamide]",0.1
8,"Cc1nc2c(OCc3c(F)cccc3F)cccn2c1C(=O)NCC(C)(C)CO [Example 41, 8-[(2,6-difluorobenzyl)oxy]-N-(3-hydroxy-2,2-dimethylpropyl)-2-methylimidazo[1,2-a]-pyridine-3-carboxamide]",3.0
9,"CC[C@H](CO)NC(=O)c1c(C)nc2c(OCc3c(F)cccc3F)cccn12 [Example 43, 8-[(2,6-Difluorobenzyl)oxy]-N-[(2R)-1-hydroxybutan-2-yl]-2-methylimidazo[1,2-a]pyridine-3-carboxamide]",0.16
10,"CC[C@H](CO)NC(=O)c1c(C)nc2c(OCc3cccc(F)c3F)cccn12 [Example 44, 8-[(2,3-difluorobenzyl)oxy]-N-[(2R)-1-hydroxybutan-2-yl]-2-methylimidazo[1,2-a]-pyridine-3-carboxamide]",0.3
11,"CC[C@H](CO)NC(=O)c1c(C)nc2c(OCc3cccc(Cl)c3Cl)cccn12 [Example 45, 8-[(2,3-dichlorobenzyl)oxy]-N-[(2R)-1-hydroxybutan-2-yl]-2-methylimidazo[1,2-a]-pyridine-3-carboxamide]",0.65
12,"Cc1nc2c(OCc3ccccc3)cccn2c1C(=O)N[C@@H](C)CO [Example 46, 8-(Benzyloxy)-N-[(2S)-1-hydroxypropan-2-yl]-2-methylimidazo[1,2-a]pyridine-3-carboxamide]",3.0
13,"Cc1nc2c(OCc3cccc(Cl)c3Cl)cccn2c1C(=O)NCCC1(O)CCCC1 [Example 47, 8-[(2,3-dichlorobenzyl)oxy]-N-[2-(1-hydroxycyclopentyl)ethyl]-2-methylimidazo[1,2-a]-pyridine-3-carboxamide]",0.3
14,"Cc1nc2c(OCc3ccccc3)cccn2c1C(=O)NCCC1(O)CCCC1 [Example 48, 8-(benzyloxy)-N-[2-(1-hydroxycyclopentyl)ethyl]-2-methylimidazo[1,2-a]pyridine-3-carboxamide]",1.0
15,"Cc1nc2c(OCc3cccc(Cl)c3Cl)cccn2c1C(=O)NC(CO)CO [Example 49, 8-[(2,3-dichlorobenzyl)oxy]-N-(1,3-dihydroxypropan-2-yl)-2-methylimidazo[1,2-a]-pyridine-3-carboxamide]",2.0
16,"Cc1nc2c(OCc3ccccc3F)cccn2c1C(=O)NC(CO)CO [Example 51, N-(1,3-dihydroxypropan-2-yl)-8-[(2-fluorobenzyl)oxy]-2-methylimidazo[1,2-a]pyridine-3-carboxamide]",5.5
17,"Cc1cccc(COc2cccn3c(C(=O)NC(CO)CO)c(C)nc23)c1Cl [Example 52, 8-[(2-chloro-3-methylbenzyl)oxy]-N-(1,3-dihydroxypropan-2-yl)-2-methylimidazo[1,2-a]-pyridine-3-carboxamide]",10
18,"Cc1nc2c(OCc3c(Cl)cccc3Cl)cccn2c1C(=O)NC(CO)CO [Example 53, 8-[(2,6-dichlorobenzyl)oxy]-N-(1,3-dihydroxypropan-2-yl)-2-methylimidazo[1,2-a]-pyridine-3-carboxamide]",10
19,"CCc1nc2c(OCC3CCCCC3)cccn2c1C(=O)N[C@H](C)CO [Example 55, 8-(Cyclohexylmethoxy)-2-ethyl-N-[(2R)-1-hydroxypropan-2-yl]imidazo[1,2-a]pyridine-3-carboxamide formic acid salt]",0.1
20,"C[C@@H](CO)NC(=O)c1c(C(F)(F)F)nc2c(OCC3CCCCC3)cccn12 [Example 56, 8-(cyclohexylmethoxy)-N-[(2S)-1-hydroxypropan-2-yl]-2-(trifluoromethyl)imidazo[1,2-a]pyridine-3-carboxamide]",1.0
21,"CCCc1nc2c(OCC3CCCCC3)cccn2c1C(=O)N[C@@H](C)CO [Example 57, 8-(cyclohexylmethoxy)-N-[(2S)-1-hydroxypropan-2-yl]-2-propylimidazo[1,2-a]-pyridine-3-carboxamide]",1.0
22,"CCc1nc2c(OCC3CCC3)cccn2c1C(=O)N[C@@H](C)CO [Example 58, 8-(cyclobutylmethoxy)-2-ethyl-N-[(2S)-1-hydroxypropan-2-yl]imidazo[1,2-a]pyridine-3-carboxamide formic acid salt]",3.0
23,"C[C@@H](CO)NC(=O)c1cnc2c(OCC3CCCCC3)cccn12 [Example 59, 8-(cyclohexylmethoxy)-N-[(2S)-1-hydroxypropan-2-yl]imidazo[1,2-a]pyridine-3-carboxamide]",3.0
24,"CCCC[C@H](CO)NC(=O)c1c(C)nc2c(OCc3c(F)cccc3F)cc(CC)cn12 [Example 60, 8-[(2,6-difluorobenzyl)oxy]-6-ethyl-N-[(2R)-1-hydroxyhexan-2-yl]-2-methylimidazo[1,2-a]pyridine-3-carboxamide]",0.1
25,"CCCC[C@H](CO)NC(=O)c1c(C)nc2c(OCc3c(F)cccc3F)cc(C3CC3)cn12 [Example 61, 6-cyclopropyl-8-[(2,6-difluorobenzyl)oxy]-N-[(2R)-1-hydroxyhexan-2-yl]-2-methylimidazo[1,2-a]pyridine-3-carboxamide]",1.0
26,"CCCC[C@H](CO)NC(=O)c1cnc2c(OCc3c(F)cccc3F)cccn12 [Example 62, 8-[(2,6-difluorobenzyl)oxy]-N-[(2R)-1-hydroxyhexan-2-yl]imidazo[1,2-a]pyridine-3-carboxamide]",0.3
27,"CCCC[C@H](CO)NC(=O)c1c(C)nc2c(OCc3c(F)cccc3F)cc(N3CCOCC3)cn12 [Example 63, 8-[(2,6-difluorobenzyl)oxy]-N-[(2R)-1-hydroxyhexan-2-yl]-2-methyl-6-(morpholin-4-yl)imidazo[1,2-a]pyridine-3-carboxamide]",3.0
28,"CCCC[C@H](CO)NC(=O)c1c(C)nc2c(OCc3c(F)cccc3F)cc(N3CCCC3)cn12 [Example 64, 8-[(2,6-difluorobenzyl)oxy]-N-[(2R)-1-hydroxyhexan-2-yl]-2-methyl-6-(pyrrolidin-1-yl)imidazo[1,2-a]pyridine-3-carboxamide]",3.0
